Results published in patent US20100323989A1, “PHARMACEUTICAL COMBINATIONS USEFUL FOR TREATING HCV” (Gilead Sciences, Inc., priority 2009, published 2010).
Like-named read-outs stand apart in the source and are kept apart here.

Assays:
[1] = Pharmacokinetic drug-drug interaction study, single dose with multiple-dose partner, healthy subjects (Example 6); type: in vivo, human; details: for Compound 1 AUC0-last, % Geometric Least-Squares Mean Ratio (90% CI) / Compound 1 AUCinf, % Geometric Least-Squares Mean Ratio (90% CI) / Compound 1 Cmax, % Geometric Least-Squares Mean Ratio (90% CI): Compound 1 + Compound 2 / Compound 1 alone; for AUC(0-t) / AUC(0-inf) / Cmax / half-life: human, plasma
Experimental: In this study, healthy subjects were randomized into one of the following three treatment groups: […] Treatment Group 3 (N=20): […] Serial blood samples for analysis of plasma concentrations of Compound 2 were collected up to 72 hours post-morning dose on Days 1 and 10 to determine systemic drug exposure.

[2] = test system: 1b Con-1 PI-Luc replicon with NS5B polymerase mutation M414T; type: cell-based, HCV genotype 1b; details: ratio of mutant EC50 to wild type EC50, NS5B M414T
[3] = test system: panel of protease inhibitor resistance-associated-mutations (NS3) in 1b PI-luc replicon; details: all NS3 protease mutants tested
[4] = test system: mutant 1b Con-1 PI-Luc replicons (major HCV NS5B polymerase inhibitor resistance mutations); test: Transient transfection replicon assay, panel of NS5B polymerase inhibitor resistance mutations; type: cell-based, HCV genotype 1b; details: against all NS5B mutations tested
[5] = Multiple-dose pharmacokinetic interaction study in healthy subjects (Example 5); type: in vivo, human
Experimental: Serial blood samples for analysis of plasma concentrations of Compound 2 were collected up to 120 hours after the morning dose on Days 7 and 21 to determine systemic drug exposure. Glossary of Abbreviations and Definitions of Terms Used in Example 5 • AUCtau The area under the concentration versus time curve over the dosing interval • AUC0-last Area under the concentration versus time curve from time zero to the last quantifiable concentration • AUCinf Area under the concentration versus time curve extrapolated to infinite time, calculated as AUC0-last+(Clast/λz) • BID twice daily • CI confidence interval • Cmax The maximum observed concentration of drug in plasma • Ctau The observed drug concentration at the end of the dosing interval • CV coefficient of variation

[6] = Group 1, Compound 1 20 mg with Compound 2 150 mg BID vs Compound 1 20 mg alone
[7] = Group 2, Compound 1 40 mg with Compound 2 150 mg BID vs Compound 1 40 mg alone
[8] = Group 3, Compound 1 + Compound 2 / Compound 2 alone
[9] = Group 3, Compound 2 75 mg with Compound 1 40 mg BID vs Compound 2 75 mg alone
[10] = Compound 1 (40 mg BID) + Compound 2 (75 mg BID) / Compound 2 alone
[11] = coadministration of Compound 1 (40 mg BID) with Compound 2 (75 mg BID) vs Compound 2 alone

Fc1ccccc1-c1nc2ccn(Cc3ccc(-c4ccc(C(F)(F)F)cc4C(F)(F)F)nn3)cc-2n1 [Compound 1, 5-({6-[2,4-bis(trifluoromethyl)phenyl]pyridazin-3-yl}methyl)-2-(2-fluorophenyl)-5H-imidazo[4,5-c]pyridine]
Compound 1 AUC0-last, % Geometric Least-Squares Mean Ratio (90% CI) ([1]; Group 1 (Compound 1 20 mg)): 250.5 (217.8, 288.0) %
Compound 1 AUCinf, % Geometric Least-Squares Mean Ratio (90% CI) ([1]; Group 1 (Compound 1 20 mg)): 321.1 (262.8, 392.2) %
Compound 1 Cmax, % Geometric Least-Squares Mean Ratio (90% CI) ([1]; Group 1 (Compound 1 20 mg)): 123.1 (111.6, 135.7) %
increase in AUC0-last of Compound 1 [1, 6]: 151%
increase in AUCinf of Compound 1 [1, 6]: 221%
increase in Cmax of Compound 1 [1, 6]: 23%
Compound 1 AUC0-last, % Geometric Least-Squares Mean Ratio (90% CI) ([1]; Group 2 (Compound 1 40 mg)): 253.0 (229.3, 279.1) %
Compound 1 AUCinf, % Geometric Least-Squares Mean Ratio (90% CI) ([1]; Group 2 (Compound 1 40 mg)): 350.4 (300.2, 409.1) %
Compound 1 Cmax, % Geometric Least-Squares Mean Ratio (90% CI) ([1]; Group 2 (Compound 1 40 mg)): 136.8 (122.7, 152.6) %
increase in AUC0-last of Compound 1 [1, 7]: 153%
increase in AUCinf of Compound 1 [1, 7]: 250%
increase in Cmax of Compound 1 [1, 7]: 37%
increase in median Compound 1 terminal phase elimination half-life ([1]; both groups (20 and 40 mg), with Compound 2 150 mg BID vs Compound 1 alone): approximately 2 fold
AUC(0-t) ([1]; 20 mg, Compound 1 AUC0-last, Mean (% CV), Group 1, human, single-dose Compound 1 20 mg alone): 12800 ng·h/mL
AUC(0-inf) ([1]; 20 mg, Compound 1 AUCinf, Mean (% CV), Group 1, human, single-dose Compound 1 20 mg alone): 13400 ng·h/mL
Cmax ([1]; 20 mg, Compound 1 Cmax, Mean (% CV), Group 1, human, single-dose Compound 1 20 mg alone): 940 ng/mL
half-life ([1]; 20 mg, Compound 1 T1/2, Median (min, max), Group 1, human, single-dose Compound 1 20 mg alone): 16.6 h
AUC(0-t) ([1]; 40 mg, Compound 1 AUC0-last, Mean (% CV), Group 2, human, single-dose Compound 1 40 mg alone): 34100 ng·h/mL
AUC(0-inf) ([1]; 40 mg, Compound 1 AUCinf, Mean (% CV), Group 2, human, single-dose Compound 1 40 mg alone): 35500 ng·h/mL
Cmax ([1]; 40 mg, Compound 1 Cmax, Mean (% CV), Group 2, human, single-dose Compound 1 40 mg alone): 1980 ng/mL
half-life ([1]; 40 mg, Compound 1 T1/2, Median (min, max), Group 2, human, single-dose Compound 1 40 mg alone): 19.2 h
AUC(0-t) ([1]; Compound 1 AUC0-last, Mean (% CV), Group 1, human, single-dose Compound 1 20 mg + multiple-dose Compound 2 150 mg BID): 32600 ng·h/mL
AUC(0-t) ([1]; Compound 1 AUC0-last, Mean (% CV), Group 2, human, single-dose Compound 1 40 mg + multiple-dose Compound 2 150 mg BID): 87500 ng·h/mL
AUC(0-inf) ([1]; Compound 1 AUCinf, Mean (% CV), Group 1, human, single-dose Compound 1 20 mg + multiple-dose Compound 2 150 mg BID): 49500 ng·h/mL
AUC(0-inf) ([1]; Compound 1 AUCinf, Mean (% CV), Group 2, human, single-dose Compound 1 40 mg + multiple-dose Compound 2 150 mg BID): 137000 ng·h/mL
Cmax ([1]; Compound 1 Cmax, Mean (% CV), Group 1, human, single-dose Compound 1 20 mg + multiple-dose Compound 2 150 mg BID): 1140 ng/mL
Cmax ([1]; Compound 1 Cmax, Mean (% CV), Group 2, human, single-dose Compound 1 40 mg + multiple-dose Compound 2 150 mg BID): 2730 ng/mL
half-life ([1]; Compound 1 T1/2, Median (min, max), Group 1, human, single-dose Compound 1 20 mg + multiple-dose Compound 2 150 mg BID): 35.8 h
half-life ([1]; Compound 1 T1/2, Median (min, max), Group 2, human, single-dose Compound 1 40 mg + multiple-dose Compound 2 150 mg BID): 39.3 h
Fold Resistance M414T [2]: 0.7 fold
fold change in EC50 values from wild-type [3]: ≤ 1.2 fold

COc1ccc2c(O[C@@H]3C[C@H]4C(=O)N[C@]5(P(=O)(O)Cc6c(F)cccc6F)C[C@H]5CCCCCCC[C@H](NC(=O)OC5CCCC5)C(=O)N4C3)cc(-c3csc(NC(C)C)n3)nc2c1Cl [Compound 2]
fold change in EC50 values from wild-type [4]: ≤ 2.1 fold
Compound 2 AUC0-last, % Geometric Least-Squares Mean Ratio (90% CI) [1, 8]: 83.8 (75.5, 93.2) %
Compound 2 AUCinf, % Geometric Least-Squares Mean Ratio (90% CI) [1, 8]: 84.9 (76.6, 94.1) %
Compound 2 Cmax, % Geometric Least-Squares Mean Ratio (90% CI) [1, 8]: 81.3 (72.5, 91.1) %
Median terminal elimination half-lives of Compound 2, comparison between the two treatments ([1]; Group 3, Compound 2 75 mg alone vs with Compound 1 40 mg BID): similar
decrease in AUC0-last of Compound 2 [1, 9]: 16%
decrease in AUCinf of Compound 2 [1, 9]: 15%
decrease in Cmax of Compound 2 [1, 9]: 19%
AUC(0-t) ([1]; 75 mg, Group 3, human, Compound 2 75 mg SD alone, read-out: Compound 2 AUC0-last, Mean (% CV)): 8790 ng·h/mL
AUC(0-inf) ([1]; 75 mg, Group 3, human, Compound 2 75 mg SD alone, read-out: Compound 2 AUCinf, Mean (% CV)): 9460 ng·h/mL
Cmax ([1]; 75 mg, Group 3, human, Compound 2 75 mg SD alone, read-out: Compound 2 Cmax, Mean (% CV)): 1040 ng/mL
half-life ([1]; 75 mg, Group 3, human, Compound 2 75 mg SD alone, read-out: Compound 2 T1/2, Median (min, max) (converted)): 5.05 h
AUC(0-t) ([1]; Group 3, human, Compound 2 75 mg SD + Compound 1 40 mg BID, read-out: Compound 2 AUC0-last, Mean (% CV)): 7270 ng·h/mL
AUC(0-inf) ([1]; Group 3, human, Compound 2 75 mg SD + Compound 1 40 mg BID, read-out: Compound 2 AUCinf, Mean (% CV)): 7920 ng·h/mL
Cmax ([1]; Group 3, human, Compound 2 75 mg SD + Compound 1 40 mg BID, read-out: Compound 2 Cmax, Mean (% CV)): 830 ng/mL
half-life ([1]; Group 3, human, Compound 2 75 mg SD + Compound 1 40 mg BID, read-out: Compound 2 T1/2, Median (min, max) (converted)): 6.06 h
Fold Resistance M414T [2]: 2.0 fold
Compound 2 AUCtau, % Geometric Least Square Mean Ratio (90% CI) [5, 10]: 75.9 (62.0, 93.0) %
Compound 2 Cmax, % Geometric Least Square Mean Ratio (90% CI) [5, 10]: 80.0 (66.7, 95.6) %
Compound 2 Ctau, % Geometric Least Square Mean Ratio (90% CI) [5, 10]: 70.0 (55.9, 87.5) %
decrease in AUCtau of Compound 2 [5, 11]: 24%
decrease in Cmax of Compound 2 [5, 11]: 20%
decrease in Ctau of Compound 2 [5, 11]: 30%
AUC ([5]; plasma, human, oral, Compound 2 (75 mg BID) alone, Day 7, read-out: Compound 2 AUCtau, Mean (% CV)): 35300 ng·h/mL
